From US9284303B2, “Benzimidazole cannabinoid agonists bearing a substituted heterocyclic group” (priority 2006, dated 2016)
Read-outs that look alike come from different tables or passages of the source.

Key:
[1] = molecular target: T1, human CB1 (hCB1) receptor (Homo sapiens, UniProt P21554); test: Inhibition of forskolin-activated cAMP production upon activation of hCB1 (HTRF), CHO-K1 cells; assay type: cell-based
T1 construct: expressed in transfected cells; host or cells: CHO-K1
Experimental: (§1) Functional activity of the test compounds was assessed by measuring their potency to inhibit forskolin-activated cAMP production upon activation of the human CB1 (hCB1) or human CB2 (hCB2) receptor through homogenous time resolved fluorescence (HTRF) assays.
CHO-K1 cells stably transfected with either hCB1 or hCB2 were grown up to 80-90% confluence in T175 Falcon flasks in DMEM/NUT MIX F-12 culture medium complemented with 2% Solution A (5.10^6 IU/l penicillin G, 5 g/l streptomycin sulphate, 5.5 g/l pyruvate, 14.6 g/l L-glutamine, 1M NaOH) and 10% foetal calf serum. Before the experiments, medium was removed, cells were washed with PBS/EDTA (140 mM NaCl, 1 mM Naz-EDTA, 8 mM Na2HPO4.2H2O, 8.5 mM KH2PO4, 2.7 mM KCl, 21 mM glucose), resuspended in stimulation buffer (HBSS 1x, IBMX 1 mM, Hepes 5 mM, MgCl2 10 mM, BSA 0.1%, pH 7.4). Cells were diluted to a concentration of 8.10^5 cell/ml for hCB1 experiments and 10^6 cells/ml for hCB2 experiments. Assays were performed using the cAMP Dynamic HTRF kit (CIS bio international, France) according to the recommendations of the manufacturer.
For CB1, each well of a 96 flat bottom black polystyrene assay plate (Costar) was filled with 25 μl stimulation buffer containing 6 μM forskolin and either test compound (in 2% DMSO), 2% DMSO or 2 μM CP55490 (in 2% DMSO). Then, 25 μl of the diluted cells was added (20,000 cells/well). After 30 minutes incubation in dark at room temperature, 25 μl cAMP-XL665 and 25 μl anti-cAMP cryptate (both at a final dilution of 1/80) was added to the cells.
After equilibration of the reaction mixtures for 1 to 24 hours in dark at room temperature, fluorescence was measured at 665 nm and 620 nm using a Discovery microplate fluorescence counter (Perkin Elmer), and the signal ratio of 665 nm/620 nm was calculated. The signal ratios of the test compounds were expressed relative to the signal ratios of the DMSO control (maximal signal ratio, no inhibition of cAMP) and CP55490 or WIN55212-2 for hCB1 and hCB2, respectively (minimal signal ratio, maximal inhibition of cAMP). From the dose response curves generated for each test compound, the dose at which 50% of the maximal inhibition of cAMP level is observed (EC50, expressed in the Tables as pEC50=−log(EC50) values) and the level of inhibition reached with 10 μM of the test compound compared to CP55490 (for hCB1) or WIN55212-2 (for hCB2) was calculated.

[2] = molecular target: T2, human CB2 (hCB2) receptor (Homo sapiens, UniProt P34972); test: Inhibition of forskolin-activated cAMP production upon activation of hCB2 (HTRF), CHO-K1 cells; assay type: cell-based; settings: for EC50: forskolin-activated cAMP, pEC50=-log(EC50); for ratio CB2 agonism over CB1 agonism: Table C-1, selectivity hCB2 over hCB1; for ratio CB2 over CB1 agonism: Table C-3, comparison of art compounds A to E with compounds of the invention
T2 construct: expressed in transfected cells; host or cells: CHO-K1
T2 sequence (P34972 whole entry): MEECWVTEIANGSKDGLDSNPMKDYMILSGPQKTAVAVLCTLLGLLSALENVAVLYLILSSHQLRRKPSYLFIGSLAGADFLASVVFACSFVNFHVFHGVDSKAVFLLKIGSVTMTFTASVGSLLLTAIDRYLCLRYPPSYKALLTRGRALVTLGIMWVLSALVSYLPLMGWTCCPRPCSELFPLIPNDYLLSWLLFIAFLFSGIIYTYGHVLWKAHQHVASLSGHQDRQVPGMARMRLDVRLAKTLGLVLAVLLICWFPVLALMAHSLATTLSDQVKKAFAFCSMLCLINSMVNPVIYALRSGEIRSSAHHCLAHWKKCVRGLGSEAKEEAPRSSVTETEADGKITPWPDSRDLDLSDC
Experimental: as §1
Before the experiments, medium was removed, cells were washed with PBS/EDTA (140 mM NaCl, 1 mM Naz-EDTA, 8 mM Na2HPO4.2H2O, 8.5 mM KH2PO4, 2.7 mM KCl, 21 mM glucose), resuspended in stimulation buffer (HBSS 1x, IBMX 1 mM, Hepes 5 mM, MgCl2 10 mM, BSA 0.1%, pH 7.4). Cells were diluted to a concentration of 8.10^5 cell/ml for hCB1 experiments and 10^6 cells/ml for hCB2 experiments. Assays were performed using the cAMP Dynamic HTRF kit (CIS bio international, France) according to the recommendations of the manufacturer.
Then, 20 μl of the diluted hCB2-CHO-K1 cells was added (20,000 cells/well). After 30 minutes incubation in dark at room temperature, 10 μl cAMP-XL665 and 10 μl anti-cAMP cryptate (both at a final dilution of 1/100) was added to the cells.

[3] = CB1 pEC50, hCB1-CHO-K1 cells, forskolin-activated cAMP, pEC50=-log(EC50)
[4] = hCB2-CHO-K1 cells, read-out: CB2 pEC50 (converted)

T1 sequence (P21554 whole entry): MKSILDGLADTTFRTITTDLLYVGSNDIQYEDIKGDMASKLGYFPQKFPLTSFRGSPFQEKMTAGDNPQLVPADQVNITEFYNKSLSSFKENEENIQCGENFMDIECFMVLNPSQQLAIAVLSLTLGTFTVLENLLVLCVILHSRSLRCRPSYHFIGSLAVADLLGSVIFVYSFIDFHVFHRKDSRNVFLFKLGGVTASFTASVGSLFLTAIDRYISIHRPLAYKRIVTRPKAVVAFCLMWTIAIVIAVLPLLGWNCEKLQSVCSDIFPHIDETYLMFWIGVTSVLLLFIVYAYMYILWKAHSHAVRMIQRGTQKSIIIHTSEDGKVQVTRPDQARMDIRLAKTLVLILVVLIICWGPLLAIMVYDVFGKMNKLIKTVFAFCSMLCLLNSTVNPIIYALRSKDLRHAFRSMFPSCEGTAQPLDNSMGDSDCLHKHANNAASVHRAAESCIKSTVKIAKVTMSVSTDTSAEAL

Row | Compound | EC50 [1, 3] [nM] | EC50 [2, 4] [nM] | ratio CB2 agonism over CB1 agonism [2] | EC50 ([2]; CB2 pEC50, hCB2-CHO-K1 cells) [nM] | ratio CB2 agonism over CB1 agonism ([2]; listed as 93) | ratio CB2 over CB1 agonism [2] | EC50 [1] [nM]
1 | CC(C)(C)c1nc2cc([S+]([O-])c3cc[n+]([O-])cc3Br)ccc2n1CC1CCOCC1 (stereo not shown) [Co. No. 86] | > 10000 | 12 | – | – | – | – | –
2 | CC(=O)N1CCC(Cn2c(C(C)(C)C)nc3cc(S(=O)(=O)c4cc[n+]([O-])cc4)ccc32)CC1 [Co. No. 143] | > 10000 | 17 | – | – | – | – | –
3 | CC(C)(C)c1nc2cc(S(=O)(=O)c3ccnc(F)c3)ccc2n1CC1CCCCO1 (stereo not shown) [Co. No. 113] | 794 | 2.63 | 302 | – | – | – | –
4 | CC(C)(C)c1nc2cc(S(=O)(=O)c3ccnc(C#N)c3)ccc2n1CC1CCOCC1 [Co. No. 93] | > 10000 | – | – | 1.48 | >6761 | – | –
5 | CC(C)(C)c1nc2cc([S+]([O-])c3ccc(Cl)nn3)ccc2n1CC1CCOCC1 (stereo not shown) [Co. No. 31] | 427 | 1.2 | 353 | – | – | – | –
6 | COc1cc(S(=O)(=O)c2ccc3c(c2)nc(C(C)(C)C)n3CC2CCC(F)(F)CC2)ccn1 [Co. No. 122] | 100 | 0.977 | 102 | – | – | – | –
7 | CO[C@H]1CC[C@H](Cn2c(C(C)(C)C)nc3cc(S(=O)(=O)c4ccnc(F)c4)ccc32)CC1 [Co. No. 160] | > 10000 | 4.27 | >2344 | – | – | – | –
8 | CCCCN(C)c1cc(S(=O)(=O)c2ccc3c(c2)nc(C(C)(C)C)n3CC2CCOCC2)ccn1 [Co. No. 138] | 832 | 1.74 | 473 | – | – | – | –
9 | CC(C)(C)c1nc2cc(S(=O)(=O)c3ccc(C(=O)O)cn3)ccc2n1CC1CCCCC1 [Co. No. 46] | 3890 | 1.05 | 3758 | – | – | – | –
10 | CC(C)(C)c1nc2cc(S(=O)(=O)c3ccc[n+]([O-])c3)ccc2n1CC1CCOCC1 [Co. No. 34] | 7410 | – | 4732 | 1.58 | – | – | –
11 | CC(C)(C)c1nc2cc(S(=O)(=O)c3cccnc3)ccc2n1CC1CCOCC1 [Co. No. B, reference compound] | – | – | – | – | – | 30 | –
12 | CC(=O)c1ccc([S+]([O-])c2ccc3c(c2)nc(C(C)(C)C)n3CC2CCOCC2)nc1 (stereo not shown) [Co. No. 32] | 7590 | 2.57 | 2951 | – | – | – | –
13 | CC(C)(C)c1nc2cc([S+]([O-])c3cc[n+]([O-])cc3)ccc2n1CC1CCOCC1 (stereo not shown) [Co. No. 2] | > 10000 | 38 | – | – | – | – | –
14 | CC(C)(C)c1nc2cc(S(=O)(=O)c3ccoc3)ccc2n1CC1CCOCC1 [Co. No. D, reference compound] | – | – | – | – | – | 26 | –
15 | Cc1cccc(S(=O)(=O)c2ccc3c(c2)nc(C(C)(C)C)n3CC2CCOCC2)n1 [Co. No. 109] | 263 | 0.813 | 324 | – | – | – | –
16 | COC(=O)c1ccc(S(=O)(=O)c2ccc3c(c2)nc(C(C)(C)C)n3CC2CCCCC2)nc1 [Co. No. 35] | 32.4 | 0.407 | 79 | – | – | – | –
17 | COCCCc1cc(S(=O)(=O)c2ccc3c(c2)nc(C(C)(C)C)n3CC2CCOCC2)cc[n+]1[O-] [Co. No. 155] | – | – | – | 2.51 | – | – | > 10000
18 | CC(C)(C)c1nc2cc(S(=O)(=O)c3ccc(S(N)(=O)=O)s3)ccc2n1CC1CCOCC1 [Co. No. 47] | 1480 | 1.7 | 871 | – | – | – | –
19 | CC(C)(C)c1nc2cc(S(=O)(=O)c3ccnc(F)c3)ccc2n1C[C@H]1CC[C@@](C)(O)CC1 [Co. No. 153] | > 10000 | 0.851 | >11749 | – | – | – | –
